For experiment [1], the target named is ClpP1P2 (Mycobacterium tuberculosis (strain ATCC 25618 / H37Rv), UniProt P9WPC3+P9WPC5). Description: in vitro assay to detect presence of AMC directly proportional to the activity of ClpP1P2. GHDDI collaboration. It counts as functional.
Experiment [2] is described as follows: microbe, parasite or virus in culture. As to conditions: Mycobacterium tuberculosis, 72 h, read-out: pIC50 (converted).
Experiment [3] can be described thus: microbe, parasite or virus in culture. The note with it: Mycobacterium tuberculosis, 96 h, read-out: pIC50 (converted).
Experiment [4] relates to Plasmodium falciparum. Description: Calibr Malaria Delayed Death Assay SOP. The class given is functional, organism-based. The note with it: for IC50: Plasmodium falciparum.

Sequence of ClpP1P2 (P9WPC5 whole entry): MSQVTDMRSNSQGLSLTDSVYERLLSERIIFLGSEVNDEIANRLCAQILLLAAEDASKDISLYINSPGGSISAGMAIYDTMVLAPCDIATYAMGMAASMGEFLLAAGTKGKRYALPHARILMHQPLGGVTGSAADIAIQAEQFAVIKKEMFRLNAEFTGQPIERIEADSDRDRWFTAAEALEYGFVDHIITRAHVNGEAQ
Sequence of ClpP1P2 (P9WPC3 whole entry): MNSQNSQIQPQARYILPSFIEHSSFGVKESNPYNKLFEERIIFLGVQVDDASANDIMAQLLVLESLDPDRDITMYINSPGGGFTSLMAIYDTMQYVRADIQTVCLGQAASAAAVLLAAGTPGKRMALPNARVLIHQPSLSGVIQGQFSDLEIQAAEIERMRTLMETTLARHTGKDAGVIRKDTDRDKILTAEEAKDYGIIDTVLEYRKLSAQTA

Regarding `Cc1cc(C)n(-c2ccc3nnc(C)n3n2)n1`, the IC50 in experiment [1] is above 100 µM.
With `COc1cc(CN2CCCCCC2c2cccs2)cc(OC)c1O` (stereo not drawn), the IC50 in experiment [1] is 16.8 µM.
Same read-out and setting: for `CN(C)C(=O)CN1CCC2(CC1)CC(=O)c1ccc3ccccc3c1O2` the value was above 100 µM.
The same measure, in the same setting: for `CCOC(=O)CN1CCC2(CC1)CC(=O)c1ccc3ccccc3c1O2` the value was above 100 µM; for `Cc1nc2oc(C(=O)N3CCOCC3)c(N)c2c2c1CCCC2`, above 100 µM.
On the same count and under the same terms, the same measure for `CC(C)c1nc2oc(C(=O)N3CCOCC3)c(N)c2c2c1CCCC2`: above 100 µM; for `Cc1nc(NC(=O)CN2C(=O)c3ccccc3NC2C(C)C)sc1C` (stereo not drawn): above 100 µM; for `COCc1nnc(NC(=O)CN2C(=O)c3ccccc3NC2C(C)C)s1` (stereo not drawn): above 100 µM.
As for `CC(C)C1Nc2ccccc2C(=O)N1CC(=O)Nc1nc2c(s1)CCC2` (stereo not drawn), the IC50 in experiment [1] is above 100 µM.
Same read-out and setting: for `CC(C)c1nnc(NC(=O)CN2C(=O)c3ccccc3NC2C(C)C)s1` (stereo not drawn) the value was above 100 µM; for `CC(C)Nc1oc(-c2ccc(S(=O)(=O)N(C)C)o2)nc1C#N`, above 100 µM; for `CC(C)CNC(=O)c1cn(-c2ccccn2)c(=O)c2ccccc12`, above 100 µM.
On the same count and under the same terms, the same measure for `CN1C(=O)c2cccc(NC(=O)c3ccc4c(c3)OCCO4)c2C1=O`: above 100 µM.
In the case of `CCCNC(=O)c1cc(-c2ccn(C(C)C)n2)n2ccccc12`, the IC50 in experiment [1] was above 100 µM.
On the same count and under the same terms, the same measure for `COCCn1cnc(-c2cc(C(=O)NC(C)C)c3ccccn23)c1`: above 100 µM.
For the compound `CC(C)Nc1nc2c(c(NC3CC3)n1)CN(C(=O)c1ccsc1)CC2`, in experiment [1], the IC50 is above 100 µM.
On the same count and under the same terms, for `O=C(c1c2c(N3CCCC3)ncnc2n2ccccc12)N1CCOCC1` the value was above 100 µM; for `O=C(c1c2c(NCC3CC3)ncnc2n2ccccc12)N1CCCC1`, above 100 µM; for `O=C(c1c2c(N3CCOCC3)ncnc2n2ccccc12)N1CCCC1`, above 100 µM.
Regarding `O=C(c1c2c(NCC3CC3)ncnc2n2ccccc12)N1CCOCC1`, in experiment [1], the IC50 was above 100 µM.
As for `CNC(=O)c1cc2c(nc1NCC(C)C)CCN(S(=O)(=O)N(C)C)CC2`, the IC50 in experiment [1] is above 100 µM.
On the same count and under the same terms, for `CCc1ccc(S(=O)(=O)N2CCCC3(CCCN3S(C)(=O)=O)C2)cc1` (stereo not drawn) the value was above 100 µM.
For the compound `Cc1ccc(S(=O)(=O)N2CCCC3(CCCN3S(C)(=O)=O)C2)cc1F` (stereo not drawn), the IC50 in experiment [1] is above 100 µM.
On the same count and under the same terms, for `CN(C)c1ncc(-c2cc(C(=O)NC(C)(C)CO)n(CC3CC3)c2)cn1` the value was above 100 µM; for `CN(C)c1ncc(-c2cc(C(=O)N3CCCC3)n(CC3CC3)c2)cn1`, above 100 µM.
The same measure, in the same setting: the same measure for `COCCn1cnc(-c2nc(C(=O)N3CCOCC3)c3ccccn23)c1`: above 100 µM; for `Cc1nc(-c2nc(C(=O)N3CCOCC3)c3ccccn23)cn1C(C)C`: above 100 µM.
On the same count and under the same terms, the same measure for `CC(C)n1cnc(-c2nc(C(=O)N3CCN(C)CC3)c3ccccn23)c1`: above 100 µM.
`CC(C)n1cnc(-c2nc(C(=O)N3CCCC3)c3ccccn23)c1`: the IC50 in experiment [1] was above 100 µM.
As to `N#Cc1ccc(OC[C@]23COC[C@H]2CN(Cc2ccoc2)C3)nc1`, the IC50 in experiment [1] is above 100 µM.
Still for that read-out and setting: for `CCS(=O)(=O)N1CCc2cc(C(=O)NC)c(NCC3CC3)nc2CC1` the value was above 100 µM; for `CN1CCc2c(C#N)c(NCc3ccncc3)n3cnnc3c2C1`, above 100 µM.
The same measure, in the same setting: the same measure for `CC/N=c1\nc(NCC)nc2n1C(O)(Nc1cc(Cl)ccc1Cl)CS2` (stereo not drawn): above 100 µM; for `Cn1ccc2c(cnc3nc(-c4ccncc4)nn32)c1=O`: above 100 µM.
On the same count and under the same terms, the same measure for `NC(=O)C1CCN(c2nc3nccc(-c4cccnc4)c3c(=O)[nH]2)CC1`: above 100 µM; for `NC(=O)C1CCN(c2nc3nccc(-c4ccncc4)c3c(=O)[nH]2)CC1`: above 100 µM; for `OCCNc1nc(Nc2ccccc2)c2nccnc2n1`: above 100 µM.
In the case of `OCCNc1nc(NCCc2ccccc2)nc2nccnc12`, the IC50 in experiment [1] is above 100 µM.
On to `OCCNc1nc(NCc2cccnc2)nc2nccnc12`, for which, in experiment [1], the IC50 was above 100 µM.
On to `COCCNc1nc(NCCc2ccccc2)nc2nccnc12`, for which the IC50 in experiment [1] is above 100 µM.
The same measure, in the same setting: the same measure for `CCN1CCc2c(sc3c2C(=O)NC(/C=C\c2ccccc2)N3)C1` (stereo not drawn): above 100 µM.
Same read-out and setting: the same measure for `COc1ccc(-c2ccnc3nc(N4CCCC4)[nH]c(=O)c23)cc1OC`: above 100 µM; for `COc1cccc(-c2ccnc3nc(N4CCCCC4)[nH]c(=O)c23)c1`: above 100 µM; for `CN1CCc2c(sc3c2C(=O)NC(/C=C/c2ccccc2)N3)C1` (stereo not drawn): above 100 µM.
On the same count and under the same terms, the same measure for `CCSCCN1CCCN(S(C)(=O)=O)CC1`: above 100 µM; for `COCCN1CCC(CNc2cnc3ccccc3n2)CC1`: above 100 µM.
For `Cn1c(CS(=O)(=O)c2ccc(Cl)cc2)cc(=O)n(C)c1=O`, the IC50 in experiment [1] is above 100 µM.
The same measure, in the same setting: for `CC(Cn1cccn1)Nc1cnc2ccccc2n1` (stereo not drawn) the value was above 100 µM; for `Cc1cnn(CC(C)Nc2cnc3ccccc3n2)c1` (stereo not drawn), above 100 µM.
For `Cc1cnn(CCNc2cnc3ccccc3n2)c1`, the IC50 in experiment [1] was above 100 µM.
Same read-out and setting: the same measure for `CCN(CC(C)C#N)C(=O)CNc1cc(Cl)ccc1C(N)=O` (stereo not drawn): above 100 µM; for `CN1CCC(NC(=O)c2cc(Br)cc(Cl)c2O)C1=O` (stereo not drawn): above 100 µM; for `CCC(=O)NC1CCCN(c2cncc(OCc3ccccc3)n2)C1` (stereo not drawn): above 100 µM.
On the same count and under the same terms, for `NC(=O)CC1CCCN(c2cncc(OCc3ccccc3)n2)C1` (stereo not drawn) the value was above 100 µM.
On the same count and under the same terms, the same measure for `NC(=O)CC1CCCN(c2cncc(SCc3ccccc3)n2)C1` (stereo not drawn): above 100 µM; for `CCOC(=O)CN(CC(F)(F)F)C(=O)c1nc(C)n2ccccc12`: above 100 µM.
In the case of `Cc1nc(C(=O)N(CC(=O)N(C)C)CC(F)(F)F)c2ccccn12`, in experiment [1], the IC50 was above 100 µM.
On the same count and under the same terms, the same measure for `CCNC(=O)C1CCCN(c2ccc3ccc(F)cc3n2)C1` (stereo not drawn): above 100 µM.
Take `NC(=O)CCC1CCCN(c2ccc3ccc(F)cc3n2)C1` (stereo not drawn): the IC50 in experiment [1] was above 100 µM.
On the same count and under the same terms, for `Nc1nccnc1C(=O)NC1CCN(Cc2ccccc2)C1` (stereo not drawn) the value was above 100 µM; for `COc1ncc(NCc2ccsc2)cc1C(N)=O`, above 100 µM; for `COc1ncc(NCc2cc(C#N)cs2)cc1C(N)=O`, above 100 µM.
Same read-out and setting: the same measure for `COc1ncc(NCc2ccc(F)cc2)cc1C(N)=O`: above 100 µM.
On the same count and under the same terms, the same measure for `CCN(CC)c1nc2sc(C(=O)N3CCNC(=O)C3)cc2s1`: above 100 µM.
In the case of `CN(C)c1nc2sc(C(=O)N3CCNC(=O)CC3)cc2s1`, in experiment [1], the IC50 was above 100 µM.
On the same count and under the same terms, for `CC1CCC(NC(=O)CNC2(c3ccc(Br)cc3)CCOCC2)CC1` (stereo not drawn) the value was above 100 µM; for `COC(=O)N1CCC(Nc2ccc(Cl)c(C#N)n2)CC1`, above 100 µM.
Same read-out and setting: for `Cc1nn(C)c(C)c1C(=O)NCc1cc(N(C)C)nc2ccccc12` the value was above 100 µM; for `COC(=O)c1cc(OC)ccc1NCC(=O)NCC(=O)N1CCCC1`, above 100 µM.
On the same count and under the same terms, for `N#Cc1cccnc1N1CCC(OCc2ccccc2)CC1` the value was above 100 µM; for `Cc1cccc(CNc2cncc(-n3cccn3)n2)c1`, above 100 µM.
As for `Fc1cccc(CNc2cncc(-n3cccn3)n2)c1`, the IC50 in experiment [1] was above 100 µM.
Still for that read-out and setting: for `Cc1cc(C)n(-c2cncc(NCCNC(=O)C3CCCC3)n2)n1` the value was above 100 µM; for `Cc1cc(C)n(-c2cncc(NCCNC(=O)C(C)(C)C)n2)n1`, above 100 µM; for `CCC(=O)N1CCCN(c2cncc(-n3nc(C)cc3C)n2)CC1`, above 100 µM.
As to `Cc1noc(CN(CCc2cccs2)Cc2cccc(C#N)c2)n1`, in experiment [1], the IC50 is above 100 µM.
`CC(C)n1c2ccccc2c2c1cc(C(=O)NCCO)n2C(=O)N(C)C`: the IC50 in experiment [1] is above 100 µM.
Same read-out and setting: for `CC(C)n1c2ccccc2c2c1cc(C(=O)NC1CC1)n2C(=O)N(C)C` the value was above 100 µM; for `Cn1cnc(-c2nc(C(=O)NCC3CCCO3)c3ccccn23)c1` (stereo not drawn), above 100 µM.
For the compound `COCCNC(=O)c1nc(-c2cn(C)cn2)n2ccccc12`, the IC50 in experiment [1] was above 100 µM.
Same read-out and setting: the same measure for `Cn1cnc(-c2nc(C(=O)NCCN3CCCC3)c3ccccn23)c1`: above 100 µM.
As usually defined, the pIC50 is the IC50 on a negative log10 scale, so that one unit is a factor of ten. The low end stands for a large IC50, the high end for a small IC50. Consider `Cc1nc(-c2cc(Cl)c3c(c2)CC(CN)O3)c[nH]1` (stereo not drawn), for which the IC50 in experiment [2] is 2.58 µM; in experiment [3], 8.33 µM; in experiment [4], 1.39 µM. The compound further returned a pIC50 in experiment [4] of 5.986.
In the same order, the values of `c1ccc(C2CN(C3CC3)CC3(CCN(Cc4cscn4)CC3)C2)cc1` (stereo not drawn) are 26.1 µM, 25.7 µM, 0.969 µM and 6.129.
For `COCCN(C)Cc1cc(Cl)ccc1OCC(O)CN1CCCCCC1` (stereo not drawn) the same measures were above 50.1 µM, 12.4 µM, 0.953 µM and 6.019.
In the case of `CC(C)c1nn(C)c(Cl)c1CNCC(=O)N1CCN(C)CC1`, in experiment [1], the IC50 is above 100 µM.
As for `Cc1ccc(CN2C[C@@H]3[C@@H](C(=O)N4CCCC4)CCS(=O)(=O)[C@@H]3C2)cc1`, in experiment [1], the IC50 was above 100 µM.
On the same count and under the same terms, for `Cc1nc(-c2cc(C(=O)N3CCCN(C)CC3)c3ccccn23)cn1C` the value was above 100 µM; for `CC(C)n1ccc(-c2cc(C(=O)N3CCN(C)CC3)c3ccccn23)n1`, above 100 µM.
Still for that read-out and setting: the same measure for `Cc1ccc(CN2CCC3(C2)C(=O)N(CC2CC2)c2ccccc23)s1` (stereo not drawn): above 100 µM; for `O=C(c1ccc2ccccc2n1)N1CCC2(CCN2c2ncccn2)C1` (stereo not drawn): above 100 µM; for `COCCNC(=O)c1cc(-c2cc[nH]n2)n2ccccc12`: above 100 µM.
For the compound `Cc1nc(-c2cc(C(=O)NCCN3CCOCC3)c3ccccn23)cs1`, the IC50 in experiment [1] is above 100 µM.
The same measure, in the same setting: the same measure for `O=C(NCCCO)c1cc(-c2cc[nH]n2)n2ccccc12`: above 100 µM.
Still for that read-out and setting: for `CN1CCCN(C(=O)c2cc(-c3cc[nH]n3)n3ccccc23)CC1` the value was above 100 µM.
Same read-out and setting: the same measure for `CNC(=O)c1cc2c(nc1NCC(C)C)CCN(CCOC)CC2`: above 100 µM; for `CNC(=O)c1cc2c(nc1NCC(C)C)CCN(C)CC2`: above 100 µM.
With `COCCN1CCc2cc(C(=O)NC(C)C)c(NCC(C)C)nc2CC1`, in experiment [1], the IC50 was above 100 µM.
On the same count and under the same terms, the same measure for `COCCN1CCc2cc(C(=O)NC(C)C)c(NCC3CC3)nc2CC1`: above 100 µM; for `CNC(=O)c1cc2c(nc1NCC1CC1)CCN(CC1CC1)CC2`: above 100 µM.

The values are drawn from ChEMBL document CHEMBL3988442, “University of Dundee, Small-Polar-MMV Screening Library” (2021).
